{
  "source": "patent EP0796041B1",
  "about": "“NEW HERBICIDAL COMPOSITIONS” (RHONE-POULENC AGRO, priority 1994, dated 1996)",
  "assay_in_all_cases": "Field trial Europe (Experiment A1), pre-emergence weed control in maize",
  "type_in_all_cases": "in vivo",
  "key": {"[1]": {"system": "Setaria viridis", "conditions": "BOLOGNA, 54DAT", "procedure": "(§1) The following experiments were conducted on Compound A and Compound B in various field research stations in Europe during May. Compound A (as a 750 g/kg water dispersible granule formulation) and Compound B (as a 600 g/kg water dispersible granule formulation) were tested at the following dose rates (note that hereafter ai means active ingredient): Compound A : 50, 75, 100, 125 g ai/ha Compound B : 240, 360, 480, 600 g ai/ha Compound A + Compound B : 50 + 240/360/480 g ai/ha 75 + 240/360/480 g ai/ha 100 + 240/360/480 g ai/ha Trial and application conditions are given below in Table 1 (in the Tables that follow DAT means days after treatment): Table 1 [table] Weeds were drilled on the same day as maize. All trials were sprayed pre-emergence of the maize on the same day as drilling or within 2 days afterwards. Soil conditions were warm and wet, so that the crop and weeds emerged and grew quickly. Rainfall or irrigation occurred within 15 days of application. In this Table \"Obs\" is the observed value the value in brackets (Exp) is the expected value calculated using the Colby formula."}, "[2]": {"system": "Polygonum lapathifolium", "conditions": "CHAZAY, 64DAT", "procedure": "as §1"}, "[3]": {"system": "Amaranthus retroflexus", "conditions": "ALZONNE, 46DAT", "procedure": "as §1"}, "[4]": {"system": "Echinochloa crus-galli", "procedure": "as §1"}},
  "data": [
    {"smiles": "CC(C)N(C(=O)COc1nnc(C(F)(F)F)s1)c1ccc(F)cc1", "note": "[Cpd B, N-isopropyl-(5-trifluoromethyl-1,3,4-thiadiazol-2-yl)-4-(4'-fluoro-oxyacetanilide)]", "values": [
      {"measurement": "percentage phytotoxicity Obs", "setting": "[1]; Cpd B 240 g a.i./ha", "result": 85, "unit": "%"},
      {"measurement": "percentage phytotoxicity Obs", "setting": "[1]; Cpd B 360 g a.i./ha", "result": 82, "unit": "%"},
      {"measurement": "percentage phytotoxicity Obs", "setting": "[1]; Cpd B 480 g a.i./ha", "result": 86, "unit": "%"},
      {"measurement": "percentage phytotoxicity Obs", "setting": "[1]; Cpd B 600 g a.i./ha", "result": 82, "unit": "%"},
      {"measurement": "percentage phytotoxicity Obs", "setting": "[2]; Cpd B 240 g a.i./ha", "result": 25, "unit": "%"},
      {"measurement": "percentage phytotoxicity Obs", "setting": "[2]; Cpd B 360 g a.i./ha", "result": 0, "unit": "%"},
      {"measurement": "percentage phytotoxicity Obs", "setting": "[2]; Cpd B 480 g a.i./ha", "result": 25, "unit": "%"},
      {"measurement": "percentage phytotoxicity Obs", "setting": "[2]; Cpd B 600 g a.i./ha", "result": 40, "unit": "%"},
      {"measurement": "percentage phytotoxicity Obs", "setting": "[3]; Cpd B 240 g a.i./ha", "result": 30, "unit": "%"},
      {"measurement": "percentage phytotoxicity Obs", "setting": "[3]; Cpd B 360 g a.i./ha", "result": 10, "unit": "%"},
      {"measurement": "percentage phytotoxicity Obs", "setting": "[3]; Cpd B 480 g a.i./ha", "result": 67, "unit": "%"},
      {"measurement": "percentage phytotoxicity Obs", "setting": "[3]; Cpd B 600 g a.i./ha", "result": 45, "unit": "%"},
      {"measurement": "percentage phytotoxicity Obs", "setting": "[4]; ALZONNE, 46DAT, Cpd B 240 g a.i./ha", "result": 45, "unit": "%"},
      {"measurement": "percentage phytotoxicity Obs", "setting": "[4]; ALZONNE, 46DAT, Cpd B 360 g a.i./ha", "result": 65, "unit": "%"},
      {"measurement": "percentage phytotoxicity Obs", "setting": "[4]; ALZONNE, 46DAT, Cpd B 480 g a.i./ha", "result": 77, "unit": "%"},
      {"measurement": "percentage phytotoxicity Obs", "setting": "[4]; ALZONNE, 46DAT, Cpd B 600 g a.i./ha", "result": 90, "unit": "%"},
      {"measurement": "percentage phytotoxicity Obs", "setting": "[4]; BOLOGNA, 54DAT, Cpd B 240 g a.i./ha", "result": 35, "unit": "%"},
      {"measurement": "percentage phytotoxicity Obs", "setting": "[4]; BOLOGNA, 54DAT, Cpd B 360 g a.i./ha", "result": 52, "unit": "%"},
      {"measurement": "percentage phytotoxicity Obs", "setting": "[4]; BOLOGNA, 54DAT, Cpd B 480 g a.i./ha", "result": 65, "unit": "%"},
      {"measurement": "percentage phytotoxicity Obs", "setting": "[4]; BOLOGNA, 54DAT, Cpd B 600 g a.i./ha", "result": 75, "unit": "%"}
    ]},
    {"smiles": "CS(=O)(=O)c1cc(C(F)(F)F)ccc1C(=O)c1cnoc1C1CC1", "note": "[Cpd A, 5-cyclopropyl-4-(2-methylsulphonyl-4-trifluoromethyl)benzoylisozaxole]", "values": [
      {"measurement": "percentage phytotoxicity Obs", "setting": "[1]; Cpd A 50 g a.i./ha", "result": 62, "unit": "%"},
      {"measurement": "percentage phytotoxicity Obs", "setting": "[1]; Cpd A 75 g a.i./ha", "result": 82, "unit": "%"},
      {"measurement": "percentage phytotoxicity Obs", "setting": "[1]; Cpd A 100 g a.i./ha", "result": 82, "unit": "%"},
      {"measurement": "percentage phytotoxicity Obs", "setting": "[1]; Cpd A 125 g a.i./ha", "result": 97, "unit": "%"},
      {"measurement": "percentage phytotoxicity Obs", "setting": "[2]; Cpd A 50 g a.i./ha", "result": 50, "unit": "%"},
      {"measurement": "percentage phytotoxicity Obs", "setting": "[2]; Cpd A 75 g a.i./ha", "result": 90, "unit": "%"},
      {"measurement": "percentage phytotoxicity Obs", "setting": "[2]; Cpd A 100 g a.i./ha", "result": 70, "unit": "%"},
      {"measurement": "percentage phytotoxicity Obs", "setting": "[2]; Cpd A 125 g a.i./ha", "result": 95, "unit": "%"},
      {"measurement": "percentage phytotoxicity Obs", "setting": "[3]; Cpd A 50 g a.i./ha", "result": 72, "unit": "%"},
      {"measurement": "percentage phytotoxicity Obs", "setting": "[3]; Cpd A 75 g a.i./ha", "result": 70, "unit": "%"},
      {"measurement": "percentage phytotoxicity Obs", "setting": "[3]; Cpd A 100 g a.i./ha", "result": 80, "unit": "%"},
      {"measurement": "percentage phytotoxicity Obs", "setting": "[3]; Cpd A 125 g a.i./ha", "result": 95, "unit": "%"},
      {"measurement": "percentage phytotoxicity Obs", "setting": "[4]; ALZONNE, 46DAT, Cpd A 50 g a.i./ha", "result": 45, "unit": "%"},
      {"measurement": "percentage phytotoxicity Obs", "setting": "[4]; ALZONNE, 46DAT, Cpd A 75 g a.i./ha", "result": 35, "unit": "%"},
      {"measurement": "percentage phytotoxicity Obs", "setting": "[4]; ALZONNE, 46DAT, Cpd A 100 g a.i./ha", "result": 82, "unit": "%"},
      {"measurement": "percentage phytotoxicity Obs", "setting": "[4]; ALZONNE, 46DAT, Cpd A 125 g a.i./ha", "result": 85, "unit": "%"},
      {"measurement": "percentage phytotoxicity Obs", "setting": "[4]; BOLOGNA, 54DAT, Cpd A 50 g a.i./ha", "result": 77, "unit": "%"},
      {"measurement": "percentage phytotoxicity Obs", "setting": "[4]; BOLOGNA, 54DAT, Cpd A 75 g a.i./ha", "result": 91, "unit": "%"},
      {"measurement": "percentage phytotoxicity Obs", "setting": "[4]; BOLOGNA, 54DAT, Cpd A 100 g a.i./ha", "result": 75, "unit": "%"},
      {"measurement": "percentage phytotoxicity Obs", "setting": "[4]; BOLOGNA, 54DAT, Cpd A 125 g a.i./ha", "result": 100, "unit": "%"}
    ]}
  ]
}
